{"source": "ChEMBL document CHEMBL1148602", "about": "“Synthesis and biological evaluation of new pentaphyrin macrocycles for photodynamic therapy” (J Med Chem, 2006)", "type_in_all_cases": "functional, cell-based", "key": {"K562 [1]": {"tested_on": "K562", "test": "Cytotoxicity against human chronic myelogenous leukemia K562 cell line without light irradiation by MTT assay at 3-12 ug/ml"}, "IMR-90 [2]": {"tested_on": "IMR-90", "test": "Cytotoxicity against human transformed fibroblast IMR90 E1A cell line without light irradiation by MTT assay at 3-12 ug/ml"}, "K562 [3]": {"tested_on": "K562", "test": "Cytotoxicity against human chronic myelogenous leukemia K562 cell line irradiated with white light at the fluence of 15 J/cm2", "conditions": "K562, light or radiation study"}, "IMR-90 [4]": {"tested_on": "IMR-90", "test": "Cytotoxicity against human transformed fibroblast IMR90 E1A cell line irradiated with white light at the fluence of 15 J/cm2", "conditions": "IMR-90, light or radiation study"}, "PANC-1 [5]": {"tested_on": "PANC-1", "test": "Cytotoxicity against human pancreatic adenocarcinomas Panc1 cell line irradiated with white light at the fluence of 15 J/cm2", "conditions": "PANC-1, light or radiation study"}, "HeLa [6]": {"tested_on": "HeLa", "test": "Cytotoxicity against human cervix adenocarcinomas HeLa cell line irradiated with white light at the fluence of 15 J/cm2", "conditions": "light or radiation study"}, "K562 [7]": {"tested_on": "K562", "test": "Cytotoxicity against human chronic myelogenous leukemia K562 cell line irradiated with white light at the fluence of 30 J/cm2", "conditions": "K562, light or radiation study"}, "IMR-90 [8]": {"tested_on": "IMR-90", "test": "Cytotoxicity against human transformed fibroblast IMR90 E1A cell line irradiated with white light at the fluence of 30 J/cm2", "conditions": "IMR-90, light or radiation study"}, "PANC-1 [9]": {"tested_on": "PANC-1", "test": "Cytotoxicity against human pancreatic adenocarcinomas Panc1 cell line irradiated with white light at the fluence of 30 J/cm2", "conditions": "PANC-1, light or radiation study"}, "HeLa [10]": {"tested_on": "HeLa", "test": "Cytotoxicity against human cervix adenocarcinomas HeLa cell line irradiated with white light at the fluence of 30 J/cm2", "conditions": "light or radiation study"}, "IMR-90 [11]": {"tested_on": "IMR-90", "test": "Effect on apoptotic fragmentation in IMR90 E1A cells at 3 ug/ml and irradiation at 8 mW/cm2 for 60 min", "conditions": "Homo sapiens"}, "K562 [12]": {"tested_on": "K562", "test": "Effect on apoptotic fragmentation in K562 cells at 3 ug/ml and irradiation at 8 mW/cm2 for 60 min", "conditions": "Homo sapiens"}, "HeLa [13]": {"tested_on": "HeLa", "test": "Internalization in cytoplasm in HeLa cells at 3 ug/ml for 24 hr by confocal microscopy after propidium iodide staining", "conditions": "Homo sapiens"}, "K562 [14]": {"tested_on": "K562", "test": "Activation of Caspase 3 and 7 in K562 cells at 3 ug/ml and irradiation of 15 J/cm2 for 8 hrs", "conditions": "Homo sapiens"}, "IMR90 EIA": {"tested_on": "IMR90 EIA", "test": "Activation of Caspase 3 and 7 in IMR90 EIA cells at 3 ug/ml and irradiation of 15 J/cm2 for 8 hrs", "conditions": "Homo sapiens"}}, "note": "Active and inactive are the calls of the source. The rule behind the calls is not given here."}
{"molecule": "CCC1=C(C)C2=NC/1=C\\c1[nH]c(c(CC)c1CC)/C=c1\\[nH]/c(c(C)c1CC)=C\\c1ccc([nH]1)/C(c1ccccc1)=c1/cc/c([nH]1)=C/2", "values": [{"measurement": "Activity", "setting": "K562 [1]", "result": "Toxic"}, {"measurement": "Activity", "setting": "IMR-90 [2]", "result": "Toxic"}, {"measurement": "IC50", "setting": "K562 [3]", "result": 3.6, "unit": "µg/mL"}, {"measurement": "IC50", "setting": "IMR-90 [4]", "result": 4.2, "unit": "µg/mL"}, {"measurement": "IC50", "setting": "PANC-1 [5]", "result": 9.8, "unit": "µg/mL"}, {"measurement": "IC50", "setting": "HeLa [6]", "result": 5.8, "unit": "µg/mL"}, {"measurement": "IC50", "setting": "K562 [7]", "result": 2.9, "unit": "µg/mL"}, {"measurement": "IC50", "setting": "IMR-90 [8]", "result": 3.2, "unit": "µg/mL"}, {"measurement": "IC50", "setting": "PANC-1 [9]", "result": 4.6, "unit": "µg/mL"}, {"measurement": "IC50", "setting": "HeLa [10]", "result": 3.8, "unit": "µg/mL"}, {"measurement": "Activity", "setting": "IMR-90 [11]", "result": "Active"}, {"measurement": "Activity", "setting": "K562 [12]", "result": "Active"}, {"measurement": "Activity", "setting": "HeLa [13]", "result": "Active"}, {"measurement": "Activity", "setting": "K562 [14]", "result": "Active"}, {"measurement": "Activity", "setting": "IMR90 EIA", "result": "Active"}]}
{"molecule": "CCC1=C(C)C2=NC/1=C\\c1[nH]c(c(CC)c1CC)/C=c1\\[nH]/c(c(C)c1CC)=C\\C1=NC(C=C1)/C(c1ccccc1)=c1/cc/c([nH]1)=C/2", "note": "(stereo not given)", "values": [{"measurement": "Activity", "setting": "K562 [1]", "result": "Toxic"}, {"measurement": "Activity", "setting": "IMR-90 [2]", "result": "Toxic"}, {"measurement": "IC50", "setting": "K562 [3]", "result": 2, "unit": "µg/mL"}, {"measurement": "IC50", "setting": "IMR-90 [4]", "result": 4, "unit": "µg/mL"}, {"measurement": "IC50", "setting": "PANC-1 [5]", "result": 9.7, "unit": "µg/mL"}, {"measurement": "IC50", "setting": "HeLa [6]", "result": 4.8, "unit": "µg/mL"}, {"measurement": "IC50", "setting": "K562 [7]", "result": 1.5, "unit": "µg/mL"}, {"measurement": "IC50", "setting": "IMR-90 [8]", "result": 2.3, "unit": "µg/mL"}, {"measurement": "IC50", "setting": "PANC-1 [9]", "result": 3.9, "unit": "µg/mL"}, {"measurement": "IC50", "setting": "HeLa [10]", "result": 2.6, "unit": "µg/mL"}, {"measurement": "Activity", "setting": "IMR-90 [11]", "result": "Active"}, {"measurement": "Activity", "setting": "K562 [12]", "result": "Active"}, {"measurement": "Activity", "setting": "HeLa [13]", "result": "Active"}, {"measurement": "Activity", "setting": "K562 [14]", "result": "Active"}, {"measurement": "Activity", "setting": "IMR90 EIA", "result": "Active"}]}
